Reference: patent US20210070748A1, “INHIBITORS OF BRUTONS TYROSINE KINASE” (Pharmacyclics LLC, priority 2015, published 2021)
Counter-ions that a name gives are not always drawn. Like-named read-outs stand apart in the source and are kept apart here.

Columns and labels:
Format in all cases: biochemical
JAK3 = target: T1, JAK3 (Homo sapiens, UniProt P52333); experiment: Inhibition of a panel of kinases, in vitro HotSpot kinase assay: JAK3; settings: 1 μM ATP, read-out: JAK3 (IC50)
T1 sequence (P52333 1-1124): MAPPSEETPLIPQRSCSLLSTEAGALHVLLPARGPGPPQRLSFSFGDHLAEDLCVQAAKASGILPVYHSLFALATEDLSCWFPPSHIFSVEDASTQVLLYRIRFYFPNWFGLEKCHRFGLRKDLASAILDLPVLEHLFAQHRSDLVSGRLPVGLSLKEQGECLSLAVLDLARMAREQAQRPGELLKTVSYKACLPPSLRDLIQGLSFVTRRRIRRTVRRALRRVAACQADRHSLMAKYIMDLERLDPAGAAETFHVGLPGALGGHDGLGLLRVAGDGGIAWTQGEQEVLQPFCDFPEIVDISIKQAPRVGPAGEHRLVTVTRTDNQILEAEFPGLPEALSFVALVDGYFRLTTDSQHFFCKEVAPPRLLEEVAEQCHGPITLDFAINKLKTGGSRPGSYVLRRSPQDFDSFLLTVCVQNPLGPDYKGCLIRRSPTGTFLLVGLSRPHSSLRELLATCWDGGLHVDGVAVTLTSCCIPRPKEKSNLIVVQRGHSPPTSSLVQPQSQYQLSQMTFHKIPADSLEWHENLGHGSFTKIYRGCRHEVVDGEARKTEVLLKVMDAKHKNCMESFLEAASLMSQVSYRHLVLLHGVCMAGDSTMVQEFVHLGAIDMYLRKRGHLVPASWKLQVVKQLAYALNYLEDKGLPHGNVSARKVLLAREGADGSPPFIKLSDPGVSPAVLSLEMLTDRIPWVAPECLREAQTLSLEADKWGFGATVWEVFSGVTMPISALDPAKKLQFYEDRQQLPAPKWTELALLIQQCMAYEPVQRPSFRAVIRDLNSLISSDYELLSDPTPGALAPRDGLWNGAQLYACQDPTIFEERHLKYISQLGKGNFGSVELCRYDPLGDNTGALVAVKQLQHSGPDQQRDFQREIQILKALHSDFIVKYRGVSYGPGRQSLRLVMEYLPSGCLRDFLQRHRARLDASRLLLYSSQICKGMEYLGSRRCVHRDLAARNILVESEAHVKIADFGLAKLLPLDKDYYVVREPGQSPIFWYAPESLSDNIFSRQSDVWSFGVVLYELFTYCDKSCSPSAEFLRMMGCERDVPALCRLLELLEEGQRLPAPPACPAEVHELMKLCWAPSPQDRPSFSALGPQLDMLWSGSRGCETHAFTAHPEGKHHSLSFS

BTK-WT = target: T2, BTK-WT (Homo sapiens, UniProt Q06187); experiment: Btk in vitro inhibitory activity (one of Method A TR-FRET, Method B electrophoretic mobility shift, Method C radiometric filter binding); settings: read-out: BTK-WT (IC50)
T2 construct: purified from insect cells as a full-length construct containing an N-terminal 6X-His tag; His6 (N); made in house; host or cells: insect cells (baculovirus Sf21 in Method B)

LCK = LCK (Homo sapiens, UniProt P06239); experiment: Inhibition of a panel of kinases, in vitro HotSpot kinase assay: LCK; settings: 1 μM ATP, read-out: LCK (IC50)
Chain of LCK (P06239 whole entry): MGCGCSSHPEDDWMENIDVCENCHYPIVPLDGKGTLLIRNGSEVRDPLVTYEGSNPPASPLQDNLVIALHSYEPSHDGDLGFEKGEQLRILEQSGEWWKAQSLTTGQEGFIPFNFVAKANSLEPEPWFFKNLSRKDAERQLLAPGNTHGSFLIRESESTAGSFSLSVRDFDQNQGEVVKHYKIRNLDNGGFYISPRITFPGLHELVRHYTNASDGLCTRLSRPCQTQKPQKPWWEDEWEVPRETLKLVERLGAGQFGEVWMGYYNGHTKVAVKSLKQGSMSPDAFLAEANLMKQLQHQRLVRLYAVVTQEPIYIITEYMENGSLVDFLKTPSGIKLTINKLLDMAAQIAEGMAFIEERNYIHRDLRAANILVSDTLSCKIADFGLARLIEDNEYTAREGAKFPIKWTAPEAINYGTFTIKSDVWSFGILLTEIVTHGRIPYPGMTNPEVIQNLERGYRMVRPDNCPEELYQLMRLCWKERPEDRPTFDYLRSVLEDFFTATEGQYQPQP

T2 sequence (Q06187 whole entry): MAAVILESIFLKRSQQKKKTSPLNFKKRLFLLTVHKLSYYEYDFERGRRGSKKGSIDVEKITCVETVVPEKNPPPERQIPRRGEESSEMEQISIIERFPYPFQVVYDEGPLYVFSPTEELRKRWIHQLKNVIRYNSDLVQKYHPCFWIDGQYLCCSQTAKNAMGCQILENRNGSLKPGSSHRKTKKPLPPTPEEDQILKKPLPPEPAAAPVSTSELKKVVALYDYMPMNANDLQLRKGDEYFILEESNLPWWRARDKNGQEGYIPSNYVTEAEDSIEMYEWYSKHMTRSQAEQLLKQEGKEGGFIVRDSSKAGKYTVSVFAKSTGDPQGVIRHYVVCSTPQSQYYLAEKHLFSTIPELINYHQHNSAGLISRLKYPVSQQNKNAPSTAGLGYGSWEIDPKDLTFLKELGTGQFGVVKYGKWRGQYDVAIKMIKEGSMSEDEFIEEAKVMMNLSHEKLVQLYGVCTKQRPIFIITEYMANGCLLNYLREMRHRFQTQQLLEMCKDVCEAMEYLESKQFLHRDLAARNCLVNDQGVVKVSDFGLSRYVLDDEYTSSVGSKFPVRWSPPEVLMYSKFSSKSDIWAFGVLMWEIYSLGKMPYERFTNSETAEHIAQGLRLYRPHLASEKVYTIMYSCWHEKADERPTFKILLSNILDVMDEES

| IC50 (JAK3; Table 10, Formula A-I) [nM] | IC50 (BTK-WT; Table 10, Formula A-I) [nM] | IC50 (LCK; Table 10, Formula A-I) [nM] | SMILES | further results |
| --- | --- | --- | --- | --- |
| 100 to 1000 | ≤ 100 | < 100 | Cc1cc(Nc2nc(N3CCC[C@@H](N4CCN(c5cccc(Cl)c5)C4=O)C3)cnc2C(N)=O)sn1 [Example A-52, 5-[(3R)-3-[3-(3-chlorophenyl)-2-oxoimidazolidin-1-yl]piperidin-1-yl]-3-[(3-methyl-1,2-thiazol-5-yl)amino]pyrazine-2-carboxamide] | – |
| 1000 to 10000 | ≤ 100 | > 10000 | CN(C)c1ccc(C(=O)N[C@@H]2CCCN(c3cnc(C(N)=O)c(Nc4ccc(S(C)(=O)=O)cc4)n3)C2)cc1 [Example A-44, 5-[(3R)-3-[4-(dimethylamino)benzamido]piperidin-1-yl]-3-[(4-methanesulfonylphenyl)amino]pyrazine-2-carboxamide] | – |
| – | – | – | C=CC(=O)N1CC[C@@H](Nc2nnc(C(N)=O)c(Nc3ccc(C(C)C)cc3)n2)C1 [Example C-32, (R)-3-(1-acryloylpyrrolidin-3-ylamino)-5-(4-isopropylphenylamino)-1,2,4-triazine-6-carboxamide] | IC50 (JAK3; Table 12, Formula C-I): < 100 nM; IC50 (BTK-WT; Table 12, Formula C-I): ≤ 100 nM; IC50 (LCK; Table 12, Formula C-I): 100 to 1000 nM |
| – | ≤ 100 | 100 to 1000 | CS(=O)(=O)c1ccc(Nc2nc(N3CCC[C@@H](NC(=O)Nc4ccccc4)C3)cnc2C(N)=O)cc1 [Example A-42, 3-[(4-methanesulfonylphenyl)amino]-5-[(3R)-3-[(phenylcarbamoyl)amino]piperidin-1-yl]pyrazine-2-carboxamide] | – |
| 1000 to 10000 | ≤ 100 | 100 to 1000 | Cc1cc(Nc2nc(N3CCC[C@@H](NC(=O)c4cccc(N(C)C)c4)C3)cnc2C(N)=O)sn1 [Example A-27, (5-[(3R)-3-[3-(dimethylamino)benzamido]piperidin-1-yl]-3-[(3-methyl-1,2-thiazol-5-yl)amino]pyrazine-2-carboxamide hydrochloride] | – |
| – | – | – | Cc1cc(Nc2nc(N[C@H]3CC[C@H](NC(=O)c4ccc(N(C)C)cc4)CC3)cnc2C(N)=O)sn1 [Example B-1, 3-[(3-methyl-1,2-thiazol-5-yl)amino]-5-{[(1r,4r)-4-[4-(dimethylamino)benzamido]cyclohexyl]amino}pyrazine-2-carboxamide] | IC50 (JAK3; Table 11, Formula B-I): 100 to 1000 nM; IC50 (BTK-WT; Table 11, Formula B-I): ≤ 100 nM; IC50 (LCK; Table 11, Formula B-I): < 100 nM |
| – | – | – | Cc1cc(Nc2nc(N[C@@H]3CCN(C(=O)c4ccccc4)C3)cnc2C(N)=O)sn1 [Example C-11, 5-{[(3R)-1-benzoylpyrrolidin-3-yl]amino}-3-[(3-methyl-1,2-thiazol-5-yl)amino]pyrazine-2-carboxamide hydrochloride] | IC50 (JAK3; Table 12, Formula C-I): 1000 to 10000 nM; IC50 (BTK-WT; Table 12, Formula C-I): ≤ 100 nM; IC50 (LCK; Table 12, Formula C-I): 1000 to 10000 nM |
| 100 to 1000 | ≤ 100 | 100 to 1000 | CN(C)c1ccc(C(=O)N[C@@H]2CCCN(c3cnc(C(N)=O)c(Nc4ccc(C5CCN(C6CCCC6)CC5)cc4)n3)C2)cc1 [Example A-7, 3-{[4-(1-cyclopentylpiperidin-4-yl)phenyl]amino}-5-[(3R)-3-[4-(dimethylamino)benzamido]piperidin-1-yl]pyrazine-2-carboxamide hydrochloride] | – |
| 1000 to 10000 | ≤ 100 | 1000 to 10000 | Cc1cc(Nc2nc(N3CCC[C@H](NC(=O)N(C)C)[C@@H]3C)cnc2C(N)=O)sn1 [Example A-58, 5-[(2S,3S)-3-[(dimethylcarbamoyl)amino]-2-methylpiperidin-1-yl]-3-[(3-methyl-1,2-thiazol-5-yl)amino]pyrazine-2-carboxamide] | – |
| – | – | – | CN1CCN(C(=O)c2ccc(Nc3nc(N[C@H]4CC[C@@H](NC(=O)N(C)C)CC4)cnc3C(N)=O)cc2)CC1 [Example B-16, 5-((1s,4s)-4-(3,3-dimethyl-ureido)cyclohexyl-amino)-3-(4-(4-methylpiperazine-1-carbonyl)phenylamino) pyrazine-2-carboxamide] | IC50 (JAK3; Table 11, Formula B-I): 1000 to 10000 nM; IC50 (BTK-WT; Table 11, Formula B-I): ≤ 100 nM; IC50 (LCK; Table 11, Formula B-I): < 100 nM |
| – | ≤ 100 | 100 to 1000 | COc1ccc(NC(=O)N[C@@H]2CCCN(c3cnc(C(N)=O)c(Nc4cc(C)ns4)n3)C2)cc1 [Example A-15, 5-[(3R)-3-{[(4-methoxyphenyl)carbamoyl]amino}piperidin-1-yl]-3-[(3-methyl-1,2-thiazol-5-yl)amino]pyrazine-2-carboxamide] | – |
| – | ≤ 100 | 100 to 1000 | Cc1cc(Nc2nc(N3CCC[C@@H](NC(=O)Nc4ccc(F)cc4)C3)cnc2C(N)=O)sn1 [Example A-14] | – |
| – | ≤ 100 | 100 to 1000 | COc1cccc(NC(=O)N[C@@H]2CCCN(c3cnc(C(N)=O)c(Nc4cc(C)ns4)n3)C2)c1 [Example A-16, 5-[(3R)-3-{[(3-methoxyphenyl)carbamoyl]amino}piperidin-1-yl]-3-[(3-methyl-1,2-thiazol-5-yl)amino]pyrazine-2-carboxamide] | – |
| – | ≤ 100 | 100 to 1000 | CS(=O)(=O)c1ccc(Nc2nc(N3CCC[C@@H](NC(=O)Nc4cccnc4)C3)cnc2C(N)=O)cc1 [Example A-43, 3-[(4-methanesulfonylphenyl)amino]-5-[(3R)-3-{[(pyridin-3-yl)carbamoyl]amino}piperidin-1-yl]pyrazine-2-carboxamide] | – |
| – | ≤ 100 | < 100 | NC(=O)c1ncc(N2CCC[C@@H](NC(=O)Nc3cccnc3)C2)nc1Nc1ccc(C2CCN(C3CCCC3)CC2)cc1 [Example A-1, 3-{[4-(1-cyclopentylpiperidin-4-yl)phenyl]amino)-5-[(3R)-3-([(pyridin-3-yl)carbamoyl]amino}piperidin-1-yl]pyrazine-2-carboxamide] | – |
| – | ≤ 100 | < 100 | Cc1cc(Nc2nc(N3CCC[C@@H](NC(=O)Nc4ccccc4)C3)cnc2C(N)=O)sn1 [Example A-9] | – |
| – | 100 to 1000 | > 10000 | CC(C)c1ccc(Nc2nc(N3CCC(C(N)=O)CC3)nnc2C(N)=O)cc1 [Example A-91, 3-(4-carbamoylpiperidin-1-yl)-5-(4-isopropylphenylamino)-1,2,4-triazine-6-carboxamide] | – |
| – | ≤ 100 | 100 to 1000 | NC(=O)c1ncc(N2CCC[C@@H](NC(=O)NC3CCCCC3)C2)nc1Nc1ccc(C2CCN(C3CCCC3)CC2)cc1 [Example A-3, 5-[(3R)-3-[(cyclohexylcarbamoyl)amino]piperidin-1-yl]-3-{[4-(1-cyclopentylpiperidin-4-yl)phenyl]amino}pyrazine-2-carboxamide] | – |
| 1000 to 10000 | ≤ 100 | – | Cc1cc(Nc2nc(N3CCCC(CNC(=O)c4ccccc4)C3)cnc2C(N)=O)sn1 (centres unmarked) [Example A-79, 3-[(3-methyl-1,2-thiazol-5-yl)amino]-5-{3-[(phenylformamido)methyl]piperidin-1-yl}pyrazine-2-carboxamide] | – |
| – | – | – | Cc1cc(Nc2nc(NC3CCC(NC(=O)c4ccccc4)CC3)cnc2C(N)=O)sn1 (centres unmarked) [Example B-4, 5-[(4-benzamidocyclohexyl)amino]-3-[(3-methyl-1,2-thiazol-5-yl)amino]pyrazine-2-carboxamide] | IC50 (JAK3; Table 11, Formula B-I): < 100 nM; IC50 (BTK-WT; Table 11, Formula B-I): ≤ 100 nM |
| 1000 to 10000 | ≤ 100 | – | Cc1cc(Nc2nc(N3CCCC(CNC(=O)c4ccc(N(C)C)cc4)C3)cnc2C(N)=O)sn1 (centres unmarked) [Example A-80] | – |
| 1000 to 10000 | ≤ 100 | – | Cc1cc(Nc2nc(N3CCC[C@@H](NC(=O)c4ccc(C5CC5)c(F)c4)C3)cnc2C(N)=O)sn1 [Example A-73, 5-[(3R)-3-(4-cyclopropyl-3-fluorobenzamido)piperidin-1-yl]-3-[(3-methyl-1,2-thiazol-5-yl)amino]pyrazine-2-carboxamide] | – |
